# From ChEMBL document CHEMBL1142601, “Biphenyl glycosides from the fruit of Pyracantha fortuneana” (J Nat Prod, 2006)
# Target: T1, Tyrosinase (Homo sapiens, UniProt P14679)
# T1 sequence (P14679 whole entry): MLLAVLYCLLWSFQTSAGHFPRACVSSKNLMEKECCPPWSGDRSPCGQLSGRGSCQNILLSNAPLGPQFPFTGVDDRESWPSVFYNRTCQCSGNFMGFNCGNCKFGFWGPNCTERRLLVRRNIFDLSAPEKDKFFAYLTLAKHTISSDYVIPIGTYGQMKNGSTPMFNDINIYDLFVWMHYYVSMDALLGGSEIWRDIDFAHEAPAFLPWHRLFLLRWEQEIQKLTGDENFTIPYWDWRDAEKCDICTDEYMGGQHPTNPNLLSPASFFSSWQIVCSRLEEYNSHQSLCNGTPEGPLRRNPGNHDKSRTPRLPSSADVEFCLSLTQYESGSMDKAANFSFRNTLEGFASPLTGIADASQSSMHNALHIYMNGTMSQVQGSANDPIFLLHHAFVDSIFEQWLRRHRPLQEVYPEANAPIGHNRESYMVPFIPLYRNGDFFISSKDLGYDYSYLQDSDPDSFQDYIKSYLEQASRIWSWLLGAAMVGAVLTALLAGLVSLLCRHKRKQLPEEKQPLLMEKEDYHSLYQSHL
# Experiment: Inhibition of tyrosinase
row,IC50 [µM],Compound
1,70,COc1cc(-c2cccc(O[C@@H]3O[C@H](CO)[C@@H](O)[C@H](O)[C@H]3O)c2O)cc(OC)c1O [FORTUNEANOSIDE D]
2,450,COc1cc(-c2ccccc2O[C@@H]2O[C@H](CO)[C@@H](O)[C@H](O)[C@H]2O)cc(OC)c1O [FORTUNEANOSIDE C]
3,140,COc1cc(-c2ccc(O[C@@H]3O[C@H](CO)[C@@H](O)[C@H](O)[C@H]3O)c(O)c2)cc(OC)c1O [FORTUNEANOSIDE E]
4,2210,COc1ccccc1-c1cc(OC)c(O)c(OC)c1O[C@@H]1O[C@H](CO)[C@@H](O)[C@H](O)[C@H]1O [FORTUNEANOSIDE B]
